This passage reports inhibition of growth and IC50 results from ChEMBL document CHEMBL1142513, “Efficient solid-phase synthesis of FK228 analogues as potent antitumoral agents” (J Med Chem, 2008).

Assay [1] has as its system T-24. The experiment in a line: Growth inhibition of human T24 cells at 5 uM after 3 days by MTT assay. It counts as functional. To be noted: T-24, 72 h, read-out: GI.
For assay [2], the system named is T-24. The experiment in a line: Antitumor activity against human T24 cells after 3 days by MTT assay. It counts as functional, cell-based. To be noted: T-24, 72 h.
The test system of assay [3] is T-24. The experiment in a line: Growth inhibition of human T24 cells at 0.5 uM after 3 days by MTT assay. To be noted: T-24, 72 h, read-out: GI. In kind it is functional. For orientation: Formazan colour is commonly taken as a measure of viable cells.
For another assay, the system named is LNCaP. The experiment in a line: Antitumor activity against human LNCAP cells after 3 days by MTT assay. It counts as functional, cell-based. To be noted: 72 h.
The subject of another assay is PC-3. The experiment in a line: Antitumor activity against human PC-3 cells after 3 days by MTT assay. Conditions: PC-3, 72 h. It counts as functional, cell-based.
The test system of the next assay is TCC-SUP. The experiment in a line: Antitumor activity against human TCC-SUP cells after 3 days by MTT assay. It counts as functional, cell-based. Conditions: 72 h.
In a further assay the test system is DU-145. The experiment in a line: Antitumor activity against human DU145 cells after 3 days by MTT assay. To be noted: DU-145, 72 h. In kind it is functional, cell-based.
Assay [4] is described as follows: Antitumor activity against human 253J cells after 3 days by MTT assay. It counts as functional, cell-based. Conditions: 72 h.

The IC50 is the concentration at which inhibition is half-maximal. A lower IC50 goes with greater potency in that assay. For `CC(C)[C@H]1NC(=O)C[C@@H]2NC(=O)[C@H](Cc3cccc4ccccc34)NC(=O)[C@H](Cc3cccc4ccccc34)NC(=O)[C@H](CSSCCNC2=O)NC1=O`, the inhibition of growth at 5 µM in the assay on T-24 [1] is over 95%. The molecule further displayed an IC50 in the assay on T-24 [2] of 0.06 µM. Also, in the assay with T-24 [3], the inhibition of growth at 0.5 µM came to 70%.
For `CC(C)[C@H]1NC(=O)C[C@@H]2NC(=O)[C@H](Cc3ccccc3)NC(=O)[C@H](Cc3ccccc3)NC(=O)[C@H](CSSCCNC2=O)NC1=O`, the IC50 stood at 0.27 µM in the assay with LNCaP; 0.26 µM in the assay with T-24 [2]; 0.6 µM in the assay on PC-3; 0.38 µM in the assay on TCC-SUP; 0.18 µM with DU-145; 0.18 µM in assay [4]. Further, the inhibition of growth at 5 µM in the assay on T-24 [1] is over 95%. Further, the inhibition of growth at 0.5 µM with T-24 [3] is 70%.
